# In ChEMBL document CHEMBL3045420, “Regulation of glycogen metabolism by anti-dyslipidemic action of gemfibrozil and cholestyramine in a dyslipidemic-diabetic hamster model” (2008):
# Legend:
# Syrian golden hamster [1] = test: Antidyslipidemic activity in Mesocricetus auratus (Syrian golden hamster) high fat diet-induced dyslipidemic-diabetic model assessed as effect on glycogen synthase in liver by measuring sodium pyruvate release at 500 mg/kg, po qd for 10 days relative to control; type: functional
# Syrian golden hamster [2] = test: Antidyslipidemic activity in Mesocricetus auratus (Syrian golden hamster) high fat diet-induced dyslipidemic-diabetic model assessed as increase of glucose-6-phosphatase in liver by measuring […] release per mg of protein at 500 mg/kg, po qd for 10 days relative to control; type: functional
# Syrian golden hamster [3] = test: Antidyslipidemic activity in Mesocricetus auratus (Syrian golden hamster) high fat diet-induced dyslipidemic-diabetic model assessed as increase of triglyceride fecal excretion at 500 mg/kg, po qd for 10 days relative to control; type: functional, Feces
# Syrian golden hamster [4] = test: Antidyslipidemic activity in Mesocricetus auratus (Syrian golden hamster) high fat diet-induced dyslipidemic-diabetic model assessed as increase of nonesterfied fatty acid fecal excretion at 500 mg/kg, po qd for 10 days relative to control; type: functional, Feces
# Syrian golden hamster [5] = test: Antidyslipidemic activity in Mesocricetus auratus (Syrian golden hamster) high fat diet-induced dyslipidemic-diabetic model assessed as reduction of total cholesterol level in plasma at 500 mg/kg, po qd for 10 days relative to control; type: functional
# Syrian golden hamster [6] = test: Antidyslipidemic activity in Mesocricetus auratus (Syrian golden hamster) high fat diet-induced dyslipidemic-diabetic model assessed as increase of lipase activity in liver at 500 mg/kg, po qd for 10 days relative to control; type: functional
# Syrian golden hamster [7] = test: Antidyslipidemic activity in Mesocricetus auratus (Syrian golden hamster) high fat diet-induced dyslipidemic-diabetic model assessed as increase of glycogen phosphorylase in muscle by measuring […] release per mg of protein at 500 mg/kg, po qd for 10 days relative to control; type: functional
# Syrian golden hamster [8] = test: Antidyslipidemic activity in Mesocricetus auratus (Syrian golden hamster) high fat diet-induced dyslipidemic-diabetic model assessed as increase of deoxycholic acid fecal excretion at 500 mg/kg, po qd for 10 days relative to control; type: functional, Feces
# Syrian golden hamster [9] = test: Antidyslipidemic activity in Mesocricetus auratus (Syrian golden hamster) high fat diet-induced dyslipidemic-diabetic model assessed as increase of glycogen level in liver at 500 mg/kg, po qd for 10 days relative to control; type: functional
# Syrian golden hamster [10] = test: Antidyslipidemic activity in Mesocricetus auratus (Syrian golden hamster) high fat diet-induced dyslipidemic-diabetic model assessed as increase of glucose-6-phosphate level in muscle at 500 mg/kg, po qd for 10 days relative to control; type: functional
# Syrian golden hamster [11] = test: Antidyslipidemic activity in Mesocricetus auratus (Syrian golden hamster) high fat diet-induced dyslipidemic-diabetic model assessed as reduction of glycerol level in plasma at 500 mg/kg, po qd for 10 days relative to control; type: functional
# Syrian golden hamster [12] = test: Antidyslipidemic activity in Mesocricetus auratus (Syrian golden hamster) high fat diet-induced dyslipidemic-diabetic model assessed as decrease of LHD in liver by measuring […] oxidation at 500 mg/kg, po qd for 10 days relative to control; type: functional
# Syrian golden hamster [13] = test: Antidyslipidemic activity in Mesocricetus auratus (Syrian golden hamster) high fat diet-induced dyslipidemic-diabetic model assessed as decrease of LHD in muscle by measuring […] oxidation at 500 mg/kg, po qd for 10 days relative to control; type: functional
# Syrian golden hamster [14] = test: Antidyslipidemic activity in Mesocricetus auratus (Syrian golden hamster) high fat diet-induced dyslipidemic-diabetic model assessed as reduction of lipolysis in adipose tissue at 500 mg/kg, po qd for 10 days relative to control; type: functional; design: scale not given: the % may be the effect or the level left
# Syrian golden hamster [15] = test: Antidyslipidemic activity in Mesocricetus auratus (Syrian golden hamster) high fat diet-induced dyslipidemic-diabetic model assessed as increase of hexokinase in muscle by measuring […] release per mg of protein at 500 mg/kg, po qd for 10 days relative to control; type: functional
# Syrian golden hamster [16] = test: Antidyslipidemic activity in Mesocricetus auratus (Syrian golden hamster) high fat diet-induced dyslipidemic-diabetic model assessed as increase of glucose-6-phosphate level in liver at 500 mg/kg, po qd for 10 days relative to control; type: functional
# Syrian golden hamster [17] = test: Antidyslipidemic activity in Mesocricetus auratus (Syrian golden hamster) high fat diet-induced dyslipidemic-diabetic model assessed as reduction of phospholipid level in muscle at 500 mg/kg, po qd for 10 days relative to control; type: functional
# Syrian golden hamster [18] = test: Antidyslipidemic activity in Mesocricetus auratus (Syrian golden hamster) high fat diet-induced dyslipidemic-diabetic model assessed as increase of lipase activity in muscle at 500 mg/kg, po qd for 10 days relative to control; type: functional
# Syrian golden hamster [19] = test: Antidyslipidemic activity in Mesocricetus auratus (Syrian golden hamster) high fat diet-induced dyslipidemic-diabetic model assessed as effect on glycogen synthase in muscle by measuring sodium pyruvate release at 500 mg/kg, po qd for 10 days relative to control; type: functional
# Syrian golden hamster [20] = test: Antidyslipidemic activity in Mesocricetus auratus (Syrian golden hamster) high fat diet-induced dyslipidemic-diabetic model assessed as reduction of glucose level in plasma at 500 mg/kg, po qd for 10 days relative to control; type: functional
# Syrian golden hamster [21] = test: Antidyslipidemic activity in Mesocricetus auratus (Syrian golden hamster) high fat diet-induced dyslipidemic-diabetic model assessed as increase of cholesterol fecal excretion at 500 mg/kg, po qd for 10 days relative to control; type: functional, Feces
# Syrian golden hamster [22] = test: Antidyslipidemic activity in Mesocricetus auratus (Syrian golden hamster) high fat diet-induced dyslipidemic-diabetic model assessed as reduction of total cholesterol level in muscle at 500 mg/kg, po qd for 10 days relative to control; type: functional
# Syrian golden hamster [23] = test: Antidyslipidemic activity in Mesocricetus auratus (Syrian golden hamster) high fat diet-induced dyslipidemic-diabetic model assessed as reduction of total cholesterol level in liver at 500 mg/kg, po qd for 10 days relative to control; type: functional
# Syrian golden hamster [24] = test: Antidyslipidemic activity in Mesocricetus auratus (Syrian golden hamster) high fat diet-induced dyslipidemic-diabetic model assessed as reduction of nonesterfied fatty acid level in plasma at 500 mg/kg, po qd for 10 days relative to control; type: functional
# Syrian golden hamster [25] = test: Antidyslipidemic activity in Mesocricetus auratus (Syrian golden hamster) high fat diet-induced dyslipidemic-diabetic model assessed as increase of cholic acid fecal excretion at 500 mg/kg, po qd for 10 days relative to control; type: functional, Feces
# Syrian golden hamster [26] = test: Antidyslipidemic activity in Mesocricetus auratus (Syrian golden hamster) high fat diet-induced dyslipidemic-diabetic model assessed as increase of glycogen level in muscle at 500 mg/kg, po qd for 10 days relative to control; type: functional
# Syrian golden hamster [27] = test: Antidyslipidemic activity in Mesocricetus auratus (Syrian golden hamster) high fat diet-induced dyslipidemic-diabetic model assessed as reduction of triglyceride level in muscle at 500 mg/kg, po qd for 10 days relative to control; type: functional
# Syrian golden hamster [28] = test: Antidyslipidemic activity in Mesocricetus auratus (Syrian golden hamster) high fat diet-induced dyslipidemic-diabetic model assessed as increase of insulin secretion per ml of plasma at 500 mg/kg, po qd for 10 days relative to control; type: functional
# Syrian golden hamster [29] = test: Antidyslipidemic activity in Mesocricetus auratus (Syrian golden hamster) high fat diet-induced dyslipidemic-diabetic model assessed as increase of cholesterylesters fecal excretion at 500 mg/kg, po qd for 10 days relative to control; type: functional, Feces
# Syrian golden hamster [30] = test: Antidyslipidemic activity in Mesocricetus auratus (Syrian golden hamster) high fat diet-induced dyslipidemic-diabetic model assessed as reduction of triglyceride level in liver at 500 mg/kg, po qd for 10 days relative to control; type: functional
# Syrian golden hamster [31] = test: Antidyslipidemic activity in Mesocricetus auratus (Syrian golden hamster) high fat diet-induced dyslipidemic-diabetic model assessed as reduction of phospholipid level in liver at 500 mg/kg, po qd for 10 days relative to control; type: functional
# Syrian golden hamster [32] = test: Antidyslipidemic activity in Mesocricetus auratus (Syrian golden hamster) high fat diet-induced dyslipidemic-diabetic model assessed as reduction of triglyceride level in plasma at 500 mg/kg, po qd for 10 days relative to control; type: functional
# Syrian golden hamster [33] = test: Antidyslipidemic activity in Mesocricetus auratus (Syrian golden hamster) high fat diet-induced dyslipidemic-diabetic model assessed as increase of glycogen phosphorylase in liver by measuring […] release per mg of protein at 500 mg/kg, po qd for 10 days relative to control; type: functional
smiles,measurement,setting,value
Cc1ccc(C)c(OCCCC(C)(C)C(=O)O)c1 [GEMFIBROZIL],Activity,Syrian golden hamster [1],0.057 nmol/min/mg
same,Activity,Syrian golden hamster [2],0.345 µM/min
same,Activity,Syrian golden hamster [3],960 µg/g
same,Activity,Syrian golden hamster [4],53.79 µmol/g
same,Activity,Syrian golden hamster [5],269.72 mg/dL
same,Activity,Syrian golden hamster [6],60%
same,Activity,Syrian golden hamster [7],36.11 µM/h
same,Activity,Syrian golden hamster [8],38.48 µg/g
same,Activity,Syrian golden hamster [9],28.49 mg/g
same,Activity,Syrian golden hamster [10],0.2 µmol/g
same,Activity,Syrian golden hamster [11],51.66 mg/dL
same,Activity,Syrian golden hamster [12],3.61 nmol/min/mg
same,Activity,Syrian golden hamster [13],21.73 nmol/min/mg
same,Activity,Syrian golden hamster [14],19%
same,Activity,Syrian golden hamster [15],0.066 µM/min
same,Activity,Syrian golden hamster [16],0.59 µmol/g
same,Activity,Syrian golden hamster [17],5.14 mg/g
same,Activity,Syrian golden hamster [18],80%
same,Activity,Syrian golden hamster [19],0.063 nmol/min/mg
same,Activity,Syrian golden hamster [20],57.57 mg/dL
same,Activity,Syrian golden hamster [21],858.81 µg/g
same,Activity,Syrian golden hamster [22],1.25 mg/g
same,Activity,Syrian golden hamster [23],2.61 mg/g
same,Activity,Syrian golden hamster [24],1.56 µmol/dL
same,Activity,Syrian golden hamster [25],65.2 µg/g
same,Activity,Syrian golden hamster [26],3.6 mg/g
same,Activity,Syrian golden hamster [27],6.3 mg/g
same,Activity,Syrian golden hamster [28],34 uU/ml
same,Activity,Syrian golden hamster [29],258.79 µg/g
same,Activity,Syrian golden hamster [30],7.92 mg/g
same,Activity,Syrian golden hamster [31],10.47 mg/g
same,Activity,Syrian golden hamster [32],220.86 mg/dL
same,Activity,Syrian golden hamster [33],5.6 µM/h
